The term Aqueous Solubility denotes how much of the substance goes into solution per volume. A higher Aqueous Solubility goes with much dissolved substance. In general, solubility refers to how much of the substance goes into solution per volume.

The structures appear in SMILES notation. ≈ marks a conversion by molar mass, not a printed value.

Holding throughout (type): physicochemical
The nature of data set [1]: Gravimetric water solubility by TGA. The conditions noted are these: deionized water, ambient, TGA gravimetric or visual dissolution, XRPD Form A. The method, then: The water solubility of select salts afforded from the 70 mg scale experiments was estimated using the following gravimetric method. Approximately 20 mg of each confirmed salt was weighed into a 2 mL HPLC vial. 50 μL increments of deionized H2O were then added to each vial along with a small magnetic stir bar. If dissolution was observed, the samples were stored in a hood overnight and examined the next day for precipitation. Samples affording slurries after a maximum of 250 μl of water were left stirring at ambient conditions overnight to equilibrate. These samples were then centrifuge filtered, and 50 μL of each saturated solution was aliquoted into tared TGA pans. On the TGA, each sample was heated and held at elevated temperature until all solvent was dried off. Resulting dry weight and aliquoted volume for each saturated solution was then utilized in estimating solubility. Refer to Table 3 for results of this study.

Data set [2] can be described thus: Aqueous solubility study (water slurry, HPLC, pH, XRPD). Particulars: for pH: pH of supernatant of overnight water slurry; for XRPD (Form) after water slurry: solids after overnight room temperature water slurry, initial Form A. The protocol:
Approximately 20 mg of the free form, mesylate, hydrochloride, succinate, glutamate, naphthoate and phosphate salts of formula (I) were weighed to individual HPLC vials equipped with a magnetic stir bar and 0.05 mL increments of deionized water added. If dissolution was observed, the approximate solubility was recorded. If no dissolution had occurred, the slurries were stirred overnight at ambient temperature. The supernatant from each slurry was obtained using centrifuge filters. Each solution was tested for pH and by HPLG versus a calibration curve (FIG. 6) to determine the equilibrium solubility. Solids obtained from the filtration were analyzed by XRPD to confirm the crystalline form (Table 4).

Data set [3] in a line: Stability at elevated temperature (60° C., 7 days). Particulars: for XRPD (Form) after elevated temperature: 60° C., 7 days, uncovered, ambient pressure, initial Form A. The protocol: Approximately 10 mg of the free form, mesylate, hydrochloride, succinate, glutamate, naphthoate and phosphate salts of formula (I) were weighed to individual 4 mL vials and stored uncovered in an oven at 60° C. and ambient pressure. After seven days of exposure, the solids were analyzed by XRPD to check for form conversion and ^1H-NMR for signs of degradation (Table 5).

Data set [4] in a line: Organic slurry experiments (7 days, THF or IPA). Particulars: initial Form A. The method, then:
Approximately 30 mg of the free form, mesylate, hydrochloride, succinate, glutamate, naphthoate and phosphate salts of formula (I) were weighed to individual HPLG vials equipped with a magnetic stir bar. Either THF or IPA was added to obtain a free flowing slurry. After seven days of ambient equilibration, solid from each slurry was obtained using centrifuge filtration with 0.45 μm nylon centrifuge filters, and dried at ambient temperature and ˜30 in Hg. After drying overnight, each was analyzed by XRPD to check for form conversion and ^1H-NMR for signs of degradation (Table 6).

The nature of data set [5]: Gravimetric moisture sorption analysis. Particulars: for water adsorbed / hygroscopicity / behaviour at high relative humidity: Form A; for hygroscopicity: gravimetric moisture sorption; for XRPD of dried material following moisture sorption program: initial Form A; for behaviour at high relative humidity: above 80% RH (80% RH to 90% RH). The method, then:
The stability of each salt was assessed via room temperature slurries in organic solvent and water, storage at elevated temperature (60° C.), and exposure to elevated relative humidity by gravimetric moisture sorption. From the water slurries, the solubility of each salt was determined at ambient conditions.

Data set [6] in a line: Relative humidity study (95% RH). The conditions noted are these: five hours, Form A lot HAL-G-29(2). The method, then:
Approximately 30 mg of Form A mono-glutamate salt [lot HAL-G-29(2)] was stored uncovered in a small glass container in a desiccator containing an aqueous saturated solution of Na2HPO4.12H2O to achieve a relative humidity of 95%. After five hours of exposure the solid had deliquesced and the sample was exposed to the lab environment (20% RH) overnight. The resulting dried solid was characterized by XRPD, DSC, and TGA.
As presented above, Form B was obtained following moisture sorption analysis of Form A and subsequent drying. In an effort to generate additional Form B for further characterization, a brief humidity study was performed as described below: approximately 30 mg of Form A mono-glutamate salt [lot HAL-G-29(2)] was stored uncovered in a small glass container in a desiccator containing an aqueous saturated solution of Na2HPO4.12H2O to achieve a relative humidity of 95%.

Take `O=C(O)c1ccc2ccccc2c1O` [1-hydroxy-2-napthoic acid]: in data set [1], the “Estimated Water Solubility” value is 4700 µg/mL. Further, the “Aqueous Solubility” value in data set [2] (deionized water, ambient temperature, overnight slurry, HPLC or visual dissolution, initial XRPD Form A) came out at 2300 µg/mL. Moreover, in data set [2], the pH amounted to 6.2 and the “XRPD (Form) after water slurry” value is “Form C”. In addition, the “XRPD (Form) after elevated temperature” value in data set [3] is on record as “Form B”. The “XRPD (Form) 7 Days” value in data set [4] (ambient slurry in IPA) was “Form B”. Further, the water adsorbed in data set [5] (60% RH) worked out at 1.5 wt %. The molecule also showed a water adsorbed in data set [5] (90% RH) of 2.5 wt %. The “water content during desorption” value in data set [5] (curve stabilized from 75%-55% RH) is “approximately 2.0 wt %”. Further, in data set [5], the hygroscopicity entry is reported as “moderately hygroscopic” and the “XRPD of dried material following moisture sorption program” value is given as “Form B”.
For the molecule `O=C1CCC(C(=O)O)N1` (centres unmarked) [2-pyrrolidine-5-carboxylic acid], in data set [3], the “1H-NMR, signs of degradation” value is reported as “No” and the “XRPD (Form) after elevated temperature” value is “no signs of conversion”. For the same molecule, the “XRPD (Form) 7 Days” value in data set [4] (ambient slurry in IPA) is listed as “no signs of conversion”. Further, the “behaviour at high relative humidity” value in data set [5] (listed as glutamate) is on record as “deliquesced”. In data set [5] (listed as mono-glutamate salt), the “behaviour at high relative humidity” value is “deliquescence”. For the same molecule, in data set [5], the hygroscopicity entry is “relatively non-hygroscopic” and the “XRPD of dried material following moisture sorption program” value is “Form B”. Further, the “behaviour at 95% RH” value in data set [6] was “deliquesced”.
Turning to `O=C1c2cccc3[nH]nc(c23)CCN1[C@@H]1CN2CCC1CC2` [Free Form, (S)-7-(quinuclidin-3-yl)-8,9-dihydro-2H-azepino[5,4,3-cd]indazol-6(7H)-one], the solubility in data set [1] (thermodynamic from solid, read-out: Estimated Water Solubility) was < 2500 µg/mL. In addition, in data set [2], the pH is reported as 9.3 and the “XRPD (Form) after water slurry” value is “no change in crystalline form”. In data set [2] (thermodynamic from solid, deionized water, ambient temperature, overnight slurry, HPLC or visual dissolution, initial XRPD Form A), this molecule showed a solubility of 2000 µg/mL (≈ 6.75 mM). Moreover, in data set [3], the “1H-NMR, signs of degradation” value is listed as “No” and the “XRPD (Form) after elevated temperature” value is “no signs of form conversion”. In data set [5], the hygroscopicity entry is on record as “non hygroscopic” and the “XRPD of dried material following moisture sorption program” value is given as “form conversion had not occurred”. For the same molecule, the water adsorbed result in data set [5] (throughout the humidity program) is “less than 0.2 wt %”.
In the case of `Cl` [Hydrochloric acid], in data set [3], the “XRPD (Form) after elevated temperature” value was “no signs of conversion”. Besides, in data set [4] (ambient slurry in IPA), the “XRPD (Form) 7 Days” value was “no signs of conversion”.
On to `O=C(O)C[C@H](O)C(=O)O` [L-Malic acid], for which the entries for the “Estimated Water Solubility” value in data set [1] and in data set [1] (listed as malate salt) were ≥80000 µg/mL and 80000 µg/mL, respectively.
Take `CS(=O)(=O)O` [Methanesulfonic acid]: the “XRPD (Form) after elevated temperature” value in data set [3] is “no signs of conversion”. Moreover, in data set [4] (ambient slurry in THF), the “XRPD (Form) 7 Days” value is reported as “no signs of conversion”. Moreover, in data set [5] (80% RH), the water adsorbed is listed as 4.6 wt %. Moreover, in data set [5] (90% RH), the water adsorbed is on record as 8.8 wt %. For the same molecule, in data set [5], the hygroscopicity entry was “moderately hygroscopic” and the “XRPD of dried material following moisture sorption program” value was “no form conversion had occurred”.
Consider `O=P(O)(O)O` [Phosphoric acid], for which the “XRPD (Form) after elevated temperature” value in data set [3] is “no signs of conversion”. The “XRPD (Form) 7 Days” value in data set [4] (ambient slurry in IPA) is “no signs of conversion”.
In the case of `O=C(O)CCC(=O)O` [Succinic acid], the “XRPD (Form) after elevated temperature” value in data set [3] is reported as “no signs of conversion”. In addition, the “XRPD (Form) 7 Days” value in data set [4] (ambient slurry in IPA) is “no signs of conversion”.
Consider `Cc1ccc(S(=O)(=O)O)cc1` [p-toluenesulfonic acid], for which the “Estimated Water Solubility” value in data set [1] is 17400 µg/mL; in data set [1] (listed as tosylate salt), 20300 µg/mL.

Values taken from patent publication US20230105412A1, “5-HT3 RECEPTOR MODULATOR, THE CRYSTALLINE FORM, METHODS OF MAKING, AND USE THEREOF” (CHENGDU SCIMOUNT PHARMATECH CO., LTD., priority 2021, published 2023).
